For the experiment, the target named is PD-1/PD-L1 interaction (PD-1-Ig / PD-L1-His) (Homo sapiens (Human), UniProt Q9NZQ7). Briefly: PD-1/PD-L1 Homogenous Time-Resolved Fluorescence (HTRF) binding assay. Particulars: PD-1/PD-L1 HTRF binding assay, read-out: Range or IC50. The essentials: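 Human PD-L1-His (10 nM final) was pre-incubated with inhibitor for 15 min, then PD-1-Ig (20 nM final) was added for a further 15 min in dPBS with 0.1% BSA and 0.05% Tween-20. Binding was detected by HTRF using Eu-cryptate anti-Ig (1 nM) and APC anti-His (20 nM).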
Chain of PD-1/PD-L1 interaction (PD-1-Ig / PD-L1-His) (Q9NZQ7 other isoform, or with tags, fused parts or gaps): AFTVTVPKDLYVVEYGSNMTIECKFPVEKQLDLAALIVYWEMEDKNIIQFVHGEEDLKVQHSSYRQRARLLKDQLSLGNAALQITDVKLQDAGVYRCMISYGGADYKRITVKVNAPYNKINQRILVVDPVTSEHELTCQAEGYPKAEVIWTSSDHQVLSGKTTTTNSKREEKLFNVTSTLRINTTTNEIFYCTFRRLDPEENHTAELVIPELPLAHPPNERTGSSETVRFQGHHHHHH
For orientation: In TR-FRET formats the signal depends on donor and acceptor labels being close together.

pIC50: −log10 of the molar value. Read-outs that look alike come from different tables or passages of the source.

For orientation: pIC50 means the negative decadic logarithm of the IC50, by convention in mol/L. Take `Cc1c(COc2ccc(CN[C@H](CO)C(=O)O)c(OCc3ccc(F)c(C#N)c3)c2)cccc1-c1ccccc1` [Example 1332, (R)-2-((2-((3-cyano-4-fluorobenzyl)oxy)-4-((2-methyl-[1,1′-biphenyl]-3-yl)methoxy)benzyl)amino)-3-hydroxypropanoic acid]: the pIC50 (value given as range class) is 8.00 to 9.22.
Still for that read-out and setting: the same measure for `Cc1c(COc2ccc(CN[C@](C)(CO)C(=O)O)c(OCc3ccc(F)c(C#N)c3)c2)cccc1-c1ccccc1` [Example 1333, (R)-2-((2-((3-cyano-4-fluorobenzyl)oxy)-4-((2-methyl-[1,1′-biphenyl]-3-yl)methoxy)benzyl)amino)-3-hydroxy-2-methylpropanoic acid]: 8.00 to 9.22; for `Cc1c(COc2ccc(CN3CCCC[C@H]3C(=O)O)c(OCc3ccc(F)c(C#N)c3)c2)cccc1-c1ccccc1` [Example 1334, (S)-1-(2-((3-cyano-4-fluorobenzyl)oxy)-4-((2-methyl-[1,1′-biphenyl]-3-yl)methoxy)benzyl)piperidine-2-carboxylic acid]: 8.00 to 9.22.
The same measure, in the same setting: with `CCOC(=O)c1cncc(COc2cc(OCc3cccc(-c4ccc5c(c4)OCCO5)c3C)c(Cl)cc2CN[C@@](C)(CO)C(=O)O)c1` [Example 2000, (S)-2-((5-chloro-4-((3-(2,3-dihydrobenzo[b][1,4]dioxin-6-yl)-2-methylbenzyl)oxy)-2-((5-(ethoxycarbonyl)pyridin-3-yl)methoxy)benzyl)amino)-3-hydroxy-2-methylpropanoic acid] the figure was 4.70 to 7.00; with `Cc1c(COc2cc(OCc3cncc(C(=O)O)c3)c(CN[C@@](C)(CO)C(=O)O)cc2Cl)cccc1-c1ccc2c(c1)OCCO2` [Example 2001, (S)-5-((2-(((2-carboxy-1-hydroxypropan-2-yl)amino)methyl)-4-chloro-5-((3-(2,3-dihydrobenzo[b][1,4]dioxin-6-yl)-2-methylbenzyl)oxy)phenoxy)methyl)nicotinic acid], 8.00 to 9.22.
Take `Cc1c(COc2cc(OCc3cncc(C(=O)O)c3)c(CN[C@@H](CCCN)C(=O)O)cc2Cl)cccc1-c1ccc2c(c1)OCCO2` [Example 2002, (S)-5-((2-(((4-amino-1-carboxybutyl)amino)methyl)-4-chloro-5-((3-(2,3-dihydrobenzo[b][1,4]dioxin-6-yl)-2-methylbenzyl)oxy)phenoxy)methyl)nicotinic acid]: for the setting “numeric value”, the pIC50 is 8.00.
Consider `Cc1c(COc2cc(OCc3cncc(C#N)c3)c(CN[C@@H](CCCN)C(=O)O)cc2Cl)cccc1-c1ccc2c(c1)OCCO2` [Example 2003, (S)-5-amino-2-((5-chloro-2-((5-cyanopyridin-3-yl)methoxy)-4-((3-(2,3-dihydrobenzo[b][1,4]dioxin-6-yl)-2-methylbenzyl)oxy)benzyl)amino)pentanoic acid], for which the pIC50 (value given as range class) is 8.00 to 9.22.
On the same count and under the same terms, the same measure for `Cc1c(COc2cc(OCc3cncc(C#N)c3)c(CN[C@@H](CCCCN)C(=O)O)cc2Cl)cccc1-c1ccc2c(c1)OCCO2` [Example 2004, (S)-6-amino-2-((5-chloro-2-((5-cyanopyridin-3-yl)methoxy)-4-((3-(2,3-dihydrobenzo[b][1,4]dioxin-6-yl)-2-methylbenzyl)oxy)benzyl)amino)hexanoic acid]: 8.00 to 9.22.
For `Cc1c(COc2cc(OCc3cncc(C#N)c3)c(CN[C@@H](CCN)C(=O)O)cc2Cl)cccc1-c1ccc2c(c1)OCCO2` [Example 2005, (S)-4-amino-2-((5-chloro-2-((5-cyanopyridin-3-yl)methoxy)-4-((3-(2,3-dihydrobenzo[b][1,4]dioxin-6-yl)-2-methylbenzyl)oxy)benzyl)amino)butanoic acid], for the setting “value given as range class”, the pIC50 was 7.00 to 8.00.
As to `Cc1c(COc2cc(OCc3cncc(C#N)c3)c(CN[C@@H](CCCCN(C)C)C(=O)O)cc2Cl)cccc1-c1ccc2c(c1)OCCO2` [Example 2006, (S)-2-((5-chloro-2-((5-cyanopyridin-3-yl)methoxy)-4-((3-(2,3-dihydrobenzo[b][1,4]dioxin-6-yl)-2-methylbenzyl)oxy)benzyl)amino)-6-(dimethylamino)hexanoic acid], the pIC50 (value given as range class) was 8.00 to 9.22.
Still for that read-out and setting: with `Cc1c(COc2cc(OCc3cncc(C#N)c3)c(CN3C[C@@H](O)CC[C@H]3C(=O)O)cc2Cl)cccc1-c1ccc2c(c1)OCCO2` [Example 2007, (2S,5S)-1-(5-chloro-2-((5-cyanopyridin-3-yl)methoxy)-4-((3-(2,3-dihydrobenzo[b][1,4]dioxin-6-yl)-2-methylbenzyl)oxy)benzyl)-5-hydroxypiperidine-2-carboxylic acid] the figure was 8.00 to 9.22; with `Cc1c(COc2cc(OCc3cncc(C#N)c3)c(CN3CC[C@@H](O)C[C@H]3C(=O)O)cc2Cl)cccc1-c1ccc2c(c1)OCCO2` [Example 2008, (2S,4R)-1-(5-chloro-2-((5-cyanopyridin-3-yl)methoxy)-4-((3-(2,3-dihydrobenzo[b][1,4]dioxin-6-yl)-2-methylbenzyl)oxy)benzyl)-4-hydroxypiperidine-2-carboxylic acid], 8.00 to 9.22.
As to `Cc1c(COc2cc(OCc3cncc(C#N)c3)c(CN[C@@H](Cc3ccccn3)C(=O)O)cc2Cl)cccc1-c1ccc2c(c1)OCCO2` [Example 2009, (S)-2-((5-chloro-2-((5-cyanopyridin-3-yl)methoxy)-4-((3-(2,3-dihydrobenzo[b][1,4]dioxin-6-yl)-2-methylbenzyl)oxy)benzyl)amino)-3-(pyridin-2-yl)propanoic acid], the pIC50 (value given as range class) is 8.00 to 9.22.
With `Cc1c(COc2cc(OCc3cncc(C#N)c3)c(CN[C@@H](Cc3cccnc3)C(=O)O)cc2Cl)cccc1-c1ccc2c(c1)OCCO2` [Example 2010, (S)-2-((5-chloro-2-((5-cyanopyridin-3-yl)methoxy)-4-((3-(2,3-dihydrobenzo[b][1,4]dioxin-6-yl)-2-methylbenzyl)oxy)benzyl)amino)-3-(pyridin-3-yl)propanoic acid], the pIC50 (numeric value) is 7.30.
On to `Cc1c(COc2cc(OCc3cncc(C#N)c3)c(CN[C@@H](Cc3ccncc3)C(=O)O)cc2Cl)cccc1-c1ccc2c(c1)OCCO2` [Example 2011, (S)-2-((5-chloro-2-((5-cyanopyridin-3-yl)methoxy)-4-((3-(2,3-dihydrobenzo[b][1,4]dioxin-6-yl)-2-methylbenzyl)oxy)benzyl)amino)-3-(pyridin-4-yl)propanoic acid], for which the pIC50 (value given as range class) was 7.00 to 8.00.
The same measure, in the same setting: the same measure for `Cc1c(COc2cc(OCc3cncc(C#N)c3)c(CN[C@@H](CCC(=O)O)C(=O)O)cc2Cl)cccc1-c1ccc2c(c1)OCCO2` [Example 2012, (S)-2-((5-chloro-2-((5-cyanopyridin-3-yl)methoxy)-4-((3-(2,3-dihydrobenzo[b][1,4]dioxin-6-yl)-2-methylbenzyl)oxy)benzyl)amino)pentanedioic acid]: 8.00 to 9.22; for `Cc1c(COc2cc(OCc3cncc(C#N)c3)c(CNCC(=O)O)cc2Cl)cccc1-c1ccc2c(c1)OCCO2` [Example 2013, 2-((5-chloro-2-((5-cyanopyridin-3-yl)methoxy)-4-((3-(2,3-dihydrobenzo[b][1,4]dioxin-6-yl)-2-methylbenzyl)oxy)benzyl)amino)acetic acid]: 8.00 to 9.22; for `Cc1c(COc2cc(OCc3cncc(C#N)c3)c(CN[C@H](CO)C(=O)O)cc2F)cccc1-c1ccc2c(c1)OCCO2` [Example 3000]: 8.00 to 9.22.
On the same count and under the same terms, with `Cc1c(COc2cc(OCc3cncc(C#N)c3)c(CN[C@](C)(CO)C(=O)O)cc2F)cccc1-c1ccc2c(c1)OCCO2` [Example 3001] the figure was 8.00 to 9.22; with `Cc1c(COc2cc(OCc3cncc(C#N)c3)c(CN3CCCC[C@H]3C(=O)O)cc2F)cccc1-c1ccc2c(c1)OCCO2` [Example 3002], 8.00 to 9.22.
Still for that read-out and setting: the same measure for `CCOC(=O)Nc1cncc(COc2cc(OCc3cccc(-c4ccc5c(c4)OCCO5)c3C)c(Cl)cc2C=O)c1` [Example 3008, ethyl (5-((4-chloro-5-((3-(2,3-dihydrobenzo[b][1,4]dioxin-6-yl)-2-methylbenzyl)oxy)-2-formylphenoxy)methyl)pyridin-3-yl)carbamate]: 8.00 to 9.22.
On to `CCOC(=O)Nc1cncc(COc2cc(OCc3cccc(-c4ccc5c(c4)OCCO5)c3C)c(Cl)cc2CN[C@@](C)(CO)C(=O)O)c1` [Example 3009, (S)-2-((5-chloro-4-((3-(2,3-dihydrobenzo[b][1,4]dioxin-6-yl)-2-methylbenzyl)oxy)-2-((5-((ethoxycarbonyl)amino)pyridin-3-yl)methoxy)benzyl)amino)-3-hydroxy-2-methylpropanoic acid], for which the pIC50 (value given as range class) is 8.00 to 9.22.
In the case of `CC(=O)Nc1cc(COc2cc(OCc3cccc(-c4ccc5c(c4)OCCO5)c3C)c(Cl)cc2C=O)ccn1` [Example 3010, N-(4-((4-chloro-5-((3-(2,3-dihydrobenzo[b][1,4]dioxin-6-yl)-2-methylbenzyl)oxy)-2-formylphenoxy)methyl)pyridin-2-yl)acetamide], the pIC50 (value given as range class) is 4.70 to 7.00.
On the same count and under the same terms, with `CC(=O)Nc1cc(COc2cc(OCc3cccc(-c4ccc5c(c4)OCCO5)c3C)c(Cl)cc2CN[C@@](C)(CO)C(=O)O)ccn1` [Example 3011, (S)-2-((2-((2-acetamidopyridin-4-yl)methoxy)-5-chloro-4-((3-(2,3-dihydrobenzo[b][1,4]dioxin-6-yl)-2-methylbenzyl)oxy)benzyl)amino)-3-hydroxy-2-methylpropanoic acid] the figure was 8.00 to 9.22; with `Cc1c(COc2cc(OCc3cncc(S(C)(=O)=O)c3)c(CN[C@@](C)(CO)C(=O)O)cc2Cl)cccc1-c1ccc2c(c1)OCCO2` [Example 3012, (S)-2-((5-chloro-4-((3-(2,3-dihydrobenzo[b][1,4]dioxin-6-yl)-2-methylbenzyl)oxy)-2-((5-(methylsulfonyl)pyridin-3-yl)methoxy)benzyl)amino)-3-hydroxy-2-methylpropanoic acid], 8.00 to 9.22.
As to `Cc1c(COc2cc(OCc3cncc(S(C)(=O)=O)c3)c(CO)cc2Cl)cccc1-c1ccc2c(c1)OCCO2` [Example 3013, (5-chloro-4-{[3-(2,3-dihydro-1,4-benzodioxin-6-yl)-2-methylphenyl]methoxy}-2-[(5-methanesulfonylpyridin-3-yl)methoxy]phenyl)methanol], the pIC50 (numeric value) is 7.10.

(Values after US9850225B2, “Compounds useful as immunomodulators” (BRISTOL-MYERS SQUIBB COMPANY, priority 2014, dated 2017).)
